System: E. coli
Settings: samples loaded by microfluidic manifold and manually (non-manifold control); antibiotic bead minus control bead Ct; FIG. 7
Protocol: The tetracycline-lyophilized reagent bead 68 was prepared such that each tetracycline-lyophilized reagent bead 68 when dissolved in 10 microliters of water yields a solution containing 0.1, 0.5, 2, and 10, micrograms of tetracycline/mL of water. To complete the trials, the embedded amplification bead 20 in the solid wax 28 was placed at the bottom of each of the amplification reaction vessels 24, and the antibiotic bead 22 was placed on top of the solid wax 28. […] Bacterial growth in the presence of the varying tetracycline concentrations mentioned above was conducted for a period of about three hours at an incubation temperature of 37° C. The temperature was then raised to above the melting point of the solid wax 28, and amplification was performed to assess the inhibitory effects of tetracycline on bacterial growth. The threshold value (Ct) of the amplification reactions were measured. […] The data was normalized by subtracting the mean Ct value for no-drug positive control from individual Ct values across the drug-containing incubations. […]
As shown in the graphical representation of lyophilized drug reagent bead testing 60, the tetracycline concentration 62 for both liquid tetracycline 66, the control group reagent, and tetracycline-lyophilized reagent beads 68 were measured in micrograms per milliliter (μg/mL), relative to the delta Ct values 64 produced by the concentration. […]

CN(C)[C@@H]1C(O)=C(C(N)=O)C(=O)[C@@]2(O)C(O)=C3C(=O)c4c(O)cccc4[C@@](C)(O)[C@H]3C[C@@H]12.Cl [tetracycline, Tetracycline hydrochloride]
growth inhibition (delta Ct values versus tetracycline concentration): demonstrated growth inhibition at the same concentrations

— patent US20260103740A1, “METHOD AND APPARATUS FOR USING L[…] BEADS FOR ANTIMICROBIAL SUSCEPTIBILITY TESTING” (General Electric Company, priority 2022, published 2026)
